Results from patent US20140120087A1, “TRIAZOLOPYRIDINES” (BAYER INTELLECTUAL PROPERTY GMBH, priority 2011, published 2014).

What was measured:
Mps-1 kinase [1] = molecular target: T1, Mps-1 kinase (Homo sapiens, UniProt P33981); experiment: Mps-1 kinase assay with 2 mM ATP (TR-FRET)
T1 sequence (P33981 1-857): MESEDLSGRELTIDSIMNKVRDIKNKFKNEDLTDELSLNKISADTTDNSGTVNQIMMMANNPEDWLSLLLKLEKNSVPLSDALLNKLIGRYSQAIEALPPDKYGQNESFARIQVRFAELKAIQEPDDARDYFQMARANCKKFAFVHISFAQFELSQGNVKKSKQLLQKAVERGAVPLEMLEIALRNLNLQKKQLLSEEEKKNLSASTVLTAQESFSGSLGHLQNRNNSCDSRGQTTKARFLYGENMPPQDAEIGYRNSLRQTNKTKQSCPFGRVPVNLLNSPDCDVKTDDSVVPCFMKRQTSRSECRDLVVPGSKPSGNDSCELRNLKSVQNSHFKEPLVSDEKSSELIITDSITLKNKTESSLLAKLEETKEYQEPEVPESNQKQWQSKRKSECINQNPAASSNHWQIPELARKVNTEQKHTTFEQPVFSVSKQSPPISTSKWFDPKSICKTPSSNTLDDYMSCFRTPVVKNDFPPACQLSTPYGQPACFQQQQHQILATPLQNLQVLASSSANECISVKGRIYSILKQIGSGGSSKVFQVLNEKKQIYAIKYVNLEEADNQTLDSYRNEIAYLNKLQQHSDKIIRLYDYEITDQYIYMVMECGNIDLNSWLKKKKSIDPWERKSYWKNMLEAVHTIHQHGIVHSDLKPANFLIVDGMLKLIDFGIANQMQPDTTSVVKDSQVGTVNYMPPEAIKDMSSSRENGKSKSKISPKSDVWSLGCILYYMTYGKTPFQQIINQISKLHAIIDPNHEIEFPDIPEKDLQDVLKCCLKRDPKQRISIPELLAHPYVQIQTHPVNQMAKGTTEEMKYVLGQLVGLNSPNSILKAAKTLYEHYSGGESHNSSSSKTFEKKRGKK

Mps-1 kinase [2] = molecular target: T1, Mps-1 kinase; experiment: Mps-1 kinase assay with 10 μM ATP (TR-FRET)

Row | Compound | IC50 (Mps-1 kinase [1]) [nM] | IC50 (Mps-1 kinase [2]) [nM]
1 | COc1cc([S@@+](C)[O-])ccc1Nc1nc2ccc(-c3ccc(NC(=O)Cc4ccc(F)cc4)cc3)cn2n1 (stereo in doubt) [Example 12.13, 2-(4-fluorophenyl)-N-[4-(2-{[2-methoxy-4-(methyl-sulfinyl)phenyl]amino}-[1,2,4]triazolo[1,5-a]pyridin-6-yl)phenyl]acetamide] | ≤ 1 | ≤ 1
2 | COc1cc([S@@+](C)[O-])c(F)cc1Nc1nc2ccc(-c3ccc(NC(=O)Cc4ccc(F)cc4)cc3)cn2n1 (stereo in doubt) [Example 12.14, N-[4-(2-{[5-fluoro-2-methoxy-4-(methylsulfinyl)-phenyl]amino}[1,2,4]-triazolo[1,5-a]pyridin-6-yl)-phenyl]-2-(4-fluorophenyl)-acetamide] | 8.5 | ≤ 1
3 | C[S@@+]([O-])c1ccc(Nc2nc3ccc(-c4ccc(NC(=O)Cc5ccc(F)cc5)cc4)cn3n2)c(OCC(F)(F)F)c1 (stereo in doubt) [Example 12.24, 2-(4-fluorophenyl)-N-[4-(2-{[4-(methylsulfinyl)-2-(2,2,2-trifluoroethoxy)-phenyl]amino}[1,2,4]-triazolo[1,5-a]pyridin-6-yl)phenyl]acetamide] | ≤ 1 | ≤ 1
4 | Cc1cc([S@@+](C)[O-])ccc1Nc1nc2ccc(-c3ccc(NC(=O)Cc4ccc(F)cc4)cc3)cn2n1 (stereo in doubt) [Example 12.33, 2-(4-fluorophenyl)-N-[4-(2-{[2-methyl-4-(methyl-sulfinyl)phenyl]amino}-[1,2,4]triazolo[1,5-a]pyridin-6-yl)phenyl]acetamide] | 1.4 | ≤ 1
5 | COc1cc([S@@+](C)[O-])ccc1Nc1nc2ccc(-c3ccc(C(=O)NCc4ccc(F)cc4)cc3)cn2n1 (stereo in doubt) [Example 12.51, N-(4-fluorobenzyl)-4-(2-{[2-methoxy-4-(methylsulfinyl)-phenyl]amino}[1,2,4]-triazolo[1,5-a]pyridin-6-yl)-benzamide] | 2.6 | ≤ 1
6 | Cc1cc([S@@+](C)[O-])ccc1Nc1nc2ccc(-c3ccc(C(=O)NCc4ccc(F)cc4)cc3)cn2n1 (stereo in doubt) [Example 12.69, N-(4-fluorobenzyl)-4-(2-{[2-methyl-4-(methylsulfinyl)-phenyl]amino}[1,2,4]triazolo [1,5-a]pyridin-6-yl)-benzamide] | 4.5 | ≤ 1
7 | Cc1cc([S@@+](C)[O-])ccc1Nc1nc2ccc(-c3ccc(C(=O)NCc4ccc(Cl)cc4)cc3)cn2n1 (stereo in doubt) [Example 12.75, N-(4-chlorobenzyl)-4-(2-{[2-methyl-4-(methylsulfinyl)-phenyl]amino}[1,2,4]triazolo [1,5-a]pyridin-6-yl)-benzamide] | 5.1 | ≤ 1
8 | Cc1ccc(CNC(=O)c2ccc(-c3ccc4nc(Nc5ccc([S@@+](C)[O-])cc5C)nn4c3)cc2)cc1 (stereo in doubt) [Example 12.78, N-(4-methylbenzyl)-4-(2-{[2-methyl-4-(methylsulfinyl)-phenyl]amino}[1,2,4]triazolo [1,5-a]pyridin-6-yl)-benzamide] | 7.6 | ≤ 1
9 | CNC(=O)c1ccc(Nc2nc3ccc(-c4ccc(NC(=O)Cc5ccc(F)cc5)cc4)cn3n2)c(OC)c1 [Example 01.30, 4-{[6-(4-{[(4-fluorophenyl)acetyl]amino}phenyl)[1,2,4]triazolo[1,5-α]-pyridin-2-yl]amino}-3-methoxy-N-methylbenzamide] | ≤ 1 | ≤ 1
10 | Cc1cc(C(=O)NCC(F)(F)F)ncc1Nc1nc2ccc(-c3ccc(NC(=O)Cc4ccc(F)cc4)cc3)cn2n1 [Example 12.38, 5-{[6-(4-{[(4-fluorophenyl)-acetyl]amino}phenyl)[1,2,4]triazolo[1,5-a]pyridin-2-yl]amino}-4-methyl-N-(2,2,2-trifluoroethyl)-pyridine-2-carboxamide] | – | ≤ 1
